Experimental data reported in US11040085B2, “Pharmaceutical composition containing F1 polypeptide and/or F3 polypeptide and use thereof” (priority 2016, dated 2021).

Key:
condyloma acuminate = conditions: topical application of 5% emulsion; cited from earlier work
Hela cells = test: MTT assay, growth of human cervical carcinoma cells (HELA) in vitro; type: cell-based; conditions: different dosages, overnight, MTT assay (FIG. 7)
TC-1 cells [1] = test: Stability in vitro (Tests 1-3), MTT assay on TC-1 cells; type: cell-based, mouse; conditions: for inhibiting effect on growth of TC-1 cells at 72th hour: Test 1, 10 μg/ml, incubated 72 hours (FIG. 10A); for activity after being prepared and stored for 7 days: Test 2, stored at minus 20° C. before using, 10 μg/ml, 24 hours incubation (FIG. 10B); for activity in PBS with a pH value of 5.5: Test 3, 10 μg/ml; for activity in PBS with a pH value of 5.5 / activity in PBS heated at 100° C.: 24 hours incubation (FIG. 10C); for activity in PBS heated at 100° C.: Test 3, PBS heated 10 minutes at 100° C. before using
Protocol: RPMI medium containing 10% of calf serum and 5×10^3 TC-1 cells were added into a 96-well cell culture plate; 10 μg/ml of the F1 polypeptide, the F3 polypeptide, and a mixture of F1 and F3 in a ratio of 1:1 were added respectively into the medium and incubated for 72 hours in an incubator with 5% of CO2 at 37° C., and the cell proliferations at 24th hour, 48th hour, and 72th hour were determined respectively by the MTT assay.
The steps in the Test 2 were substantially the same as those in the Test 1, except that the F1 polypeptide and the F3 polypeptide which had been prepared and stored for 0, 1, 3, 5, and 7 days at minus 20° C. respectively before using were added into the medium, and the incubation was performed for 24 hours.
The steps in the Test 3 were substantially the same as those in the Test 1, except that the pH value of the phosphate buffer saline (PBS) in the medium was changed or the PBS is heated for 10 minutes at 100° C. before using, and the incubation was performed for 24 hours. Referring to FIG. 10C, it can be seen that the F1 polypeptide and the F3 polypeptide were still active even in the PBS with a pH value of 5.5 or heated at 100° C.

tumor = conditions: M. A. Apponyi, et al., Peptides, 2004, 25, 1035; cited from earlier work
TC-1 cells [2] = type: cell-based; conditions: different concentrations, incubated overnight, MTT assay (FIG. 1A-1C)
Protocol: (§1) More specifically, in the method, 100 μL of 5×10^3 TC-1 cells cultured in a RPMI medium containing 10% of calf serum were added into a 96-well cell culture plate, the F1 polypeptide (FIG. 1A), the F3 polypeptide (FIG. 1B), and control polypeptide P3 (FIG. 1C) with different concentrations were added respectively and incubated overnight in an incubator with 5% of CO2 at 37° C., and the cell proliferation was determined by a MTT assay.
(§2) 100 μL of 5×10^3 TC-1 cells cultured in a RPMI medium containing 10% of calf serum were added into a 96-well cell culture plate, 5 μg/mL of F1 and/or F3 and control polypeptides P3 and F4 were added respectively and incubated overnight in an incubator with 5% of CO2 at 37° C., and the cell proliferation was determined by a MTT assay.
as §2, with “and/or Imiquimod” for “and control polypeptides P3 and F4”

IL-6 = IL-6 level in TC-1 culture solution by ELISA; type: cell-based, mouse; conditions: for change of IL-6 levels with increase of concentration: 5 μg/mL to 10 μg/mL, overnight (FIG. 12A, 12B); for IL-6 level in TC-1 culture solution: 5 μg/mL, overnight, vs untreated solution or P3 polypeptide (FIG. 12A)
Protocol: FIGS. 12A and 12B are graphs illustrating IL-6 levels (detected by ELISA) in TC-1 culture solutions treated by 5 μg/mL and 10 μg/mL of the P3 polypeptide, the F1 polypeptide, the F3 polypeptide, and a mixture of F1 and F3 overnight, respectively. […] IL-6 levels were decreased with increase of concentration of the F1 polypeptide, the F3 polypeptide, or the mixture of F1 and F3, which may be resulted from apoptosis of TC-1 cells induced by high concentration of the F1 polypeptide, the F3 polypeptide, or the mixture of F1 and F3.

NP69 cells = test: MTT assay, immortalized normal cells NP69; type: cell-based; conditions: different concentrations, incubated overnight, MTT assay (FIG. 1D)
Protocol: as §1, with “Immortalized normal cells NP69 were used in another experiment. More” for “More”, “specifically,” for “specifically, in the method,”, “NP69” for “TC-1”, “polypeptide,” for “polypeptide (FIG. 1A),”, “polypeptide,” for “polypeptide (FIG. 1B),”, “1D)” for “1C)”

TC-1 cells [3] = test: Interaction of FITC-labeled polypeptide with TC-1 cell (flow cytometry, confocal microscopy); type: cell-based, mouse; conditions: 2 μg/mL FITC-labeled polypeptide, flow cytometry (FIG. 5A)
Protocol: The separated protein was digested by trypsin, polypeptides produced from the digestion was labeled by iTRAQ 4-plex reagents, and the labeled polypeptides were quantitatively analyzed by using a system combining a nano high performance liquid chromatography and a triple time of flight mass spectrometer. […] Besides, the F3 polypeptide and a control polypeptide P3 were labeled by fluorescent dye fluorescein isothiocyanate (FITC), incubated together with TC-1 cells for different periods, and repeatedly washed, thereafter a fluorescence intensity of FITC in the TC-1 cell was detected by a flow cytometry (FIG. 5A).
1000 μL of 5×10^5 TC-1 cells cultured in a RPMI medium containing 10% of calf serum were added into a 24-well cell culture plate, 2 μg/mL of the F3 polypeptide labeled by FITC was added into the cells being incubated, cells at different time points of the incubation were collected and washed with PBS buffer solution, and then the relationship between the F3 polypeptide and TC-1 cell was observed by a flow cytometer (FIG. 5A) or a confocal microscopy (FIG. 5B).

Compound | recurrence rate (condyloma acuminate) | inhibiting effect on growth of Hela cells in vitro (Hela cells) | inhibiting effect on growth of TC-1 cells at 72th hour (TC-1 cells [1]) | activity after being prepared and stored for 7 days (TC-1 cells [1]) | activity in PBS with a pH value of 5.5 (TC-1 cells [1]) | activity in PBS heated at 100° C. (TC-1 cells [1]) | effect on tumor (tumor) | inhibiting effect on growth of TC-1 cells (TC-1 cells [2]) | change of IL-6 levels with increase of concentration (IL-6) | IL-6 level in TC-1 culture solution (IL-6) | inhibiting effect on NP69 cells (NP69 cells) | time at which FITC was found in TC-1 cell (TC-1 cells [3]) [min] | time of peak fluorescence intensity of FITC in TC-1 cell (TC-1 cells [3]) [h]
CC(C)Cn1cnc2c(N)nc3ccccc3c21 [Imiquimod] | about 10% | inhibiting effect |  |  |  |  |  |  |  |  |  |  | 
F1 polypeptide: polypeptide of SEQ ID NO: 1, sequence found in tree frog secretion, made by solid phase peptide synthesis; Caerin polypeptide (GLLSVLGSVAKHVLPHVVPVIAEHL; the sequence is synthesized) |  |  | significant inhibiting effects | not reduced | still active | still active | inhibiting effect on tumor | obvious inhibiting effects | decreased | significantly higher | no inhibiting effect |  | 
F3 polypeptide: polypeptide of SEQ ID NO: 2, sequence found in tree frog secretion, made by solid phase peptide synthesis; Caerin polypeptide (GLFGVLGSIAKHLLPHVVPVIAEKL; the sequence is synthesized) |  |  | significant inhibiting effects | not reduced | still active | still active |  | obvious inhibiting effects | decreased | significantly higher | no inhibiting effect | 15 | 2
